Calls of active or inactive are those of the source. The rule behind the calls is not given here.
Experiments:
[1] = Metabolic stability in mouse plasma assessed as compound remaining at 5 uM incubated for 120 mins by ECHO-MS analysis; format: ADME, cell-free; settings: for remaining at 2 h, 5 µM: read-out: Stability
[2] = Metabolic stability in human plasma assessed as compound remaining at 5 uM incubated for 120 mins by ECHO-MS analysis; format: ADME, cell-free; settings: for remaining at 2 h, 5 µM: read-out: Stability; for Stability: 2 h, 5 µM
[3] = Metabolic stability in mouse liver microsomes assessed as compound remaining at 10 uM incubated for 45 mins by ECHO-MS analysis; format: ADME, Microsome; settings: read-out: Stability
[4] = target: T1, Receptor-interacting serine/threonine-protein kinase 2 (Homo sapiens, UniProt O43353); assay: Inhibition of RIPK2-mediated NF-kappaB signalling in MDP-treated human THP-1 cells preincubated for 30 mins followed by MDP addition measured after 24 hrs by luminescence based assay; format: cell-based
[5] = target: T2, Receptor-interacting serine/threonine-protein kinase 3 (Homo sapiens, UniProt Q9Y572); assay: Inhibition of N-terminal polyHis-tagged human RIPK3 (1 to 307 residues) expressed in Sf9 cells using MBP as substrate preincubated for 15 mins followed by ATP addition measured after 90 mins by ADP-Glo assay
Target sequence in this assay (Q9Y572 whole entry, the tested form may be a part): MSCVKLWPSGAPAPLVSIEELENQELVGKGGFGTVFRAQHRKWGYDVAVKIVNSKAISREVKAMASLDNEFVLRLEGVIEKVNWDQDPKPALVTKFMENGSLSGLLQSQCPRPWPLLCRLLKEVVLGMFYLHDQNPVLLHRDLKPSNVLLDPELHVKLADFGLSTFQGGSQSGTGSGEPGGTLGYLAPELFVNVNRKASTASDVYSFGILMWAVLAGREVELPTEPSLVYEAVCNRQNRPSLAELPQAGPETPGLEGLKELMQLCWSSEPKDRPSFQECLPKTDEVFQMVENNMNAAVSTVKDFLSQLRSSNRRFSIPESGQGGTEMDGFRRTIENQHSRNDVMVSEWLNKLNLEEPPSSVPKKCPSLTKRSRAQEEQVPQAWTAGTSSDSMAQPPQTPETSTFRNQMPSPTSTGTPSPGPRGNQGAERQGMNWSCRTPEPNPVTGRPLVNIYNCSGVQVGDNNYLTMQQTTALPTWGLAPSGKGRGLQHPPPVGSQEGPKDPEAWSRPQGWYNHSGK

[6] = target: T3, Receptor-interacting serine/threonine-protein kinase 4 (Homo sapiens, UniProt P57078); assay: Inhibition of N-terminal polyHis-tagged human RIPK4 (1 to 321 residues) expressed in Sf9 cells using MBP as substrate preincubated for 15 mins followed by ATP addition measured after 90 mins by ADP-Glo assay
T3 sequence (P57078 whole entry): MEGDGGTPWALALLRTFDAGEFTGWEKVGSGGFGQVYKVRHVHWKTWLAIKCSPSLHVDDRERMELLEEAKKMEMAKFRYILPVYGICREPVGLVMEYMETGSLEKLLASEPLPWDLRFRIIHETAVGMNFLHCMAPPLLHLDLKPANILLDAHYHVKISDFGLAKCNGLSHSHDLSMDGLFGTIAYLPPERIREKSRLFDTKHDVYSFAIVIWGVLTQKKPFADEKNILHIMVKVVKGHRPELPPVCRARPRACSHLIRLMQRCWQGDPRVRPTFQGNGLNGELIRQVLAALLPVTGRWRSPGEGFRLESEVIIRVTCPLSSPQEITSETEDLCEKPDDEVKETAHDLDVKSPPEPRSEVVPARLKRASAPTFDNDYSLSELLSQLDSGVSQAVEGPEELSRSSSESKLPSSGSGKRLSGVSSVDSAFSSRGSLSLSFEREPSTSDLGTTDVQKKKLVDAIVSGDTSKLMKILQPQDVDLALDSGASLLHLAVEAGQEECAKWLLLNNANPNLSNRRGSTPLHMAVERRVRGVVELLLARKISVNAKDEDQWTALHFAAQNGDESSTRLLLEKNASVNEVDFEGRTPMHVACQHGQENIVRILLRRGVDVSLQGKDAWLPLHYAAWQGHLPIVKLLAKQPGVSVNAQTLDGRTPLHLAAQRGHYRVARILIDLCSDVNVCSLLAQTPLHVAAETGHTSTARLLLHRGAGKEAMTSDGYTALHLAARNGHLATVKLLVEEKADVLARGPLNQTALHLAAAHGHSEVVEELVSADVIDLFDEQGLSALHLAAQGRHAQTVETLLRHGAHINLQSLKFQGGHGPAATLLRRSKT

[7] = Metabolic stability in human liver microsomes assessed as compound remaining at 10 uM incubated for 45 mins by ECHO-MS analysis; format: ADME, Microsome; settings: for Stability: microsomes, 0.75 h, 10 µM; for remaining at 0.75 h, 10 µM: liver microsomes, read-out: Stability
[8] = target: T4, Receptor-interacting serine/threonine-protein kinase 1 (Homo sapiens, UniProt Q13546); assay: Inhibition of N-terminal polyHis-tagged human RIPK1 (1 to 321 residues) expressed in Sf9 cells using MBP as substrate preincubated for 15 mins followed by ATP addition measured after 90 mins by ADP-Glo assay
T4 sequence (Q13546 whole entry): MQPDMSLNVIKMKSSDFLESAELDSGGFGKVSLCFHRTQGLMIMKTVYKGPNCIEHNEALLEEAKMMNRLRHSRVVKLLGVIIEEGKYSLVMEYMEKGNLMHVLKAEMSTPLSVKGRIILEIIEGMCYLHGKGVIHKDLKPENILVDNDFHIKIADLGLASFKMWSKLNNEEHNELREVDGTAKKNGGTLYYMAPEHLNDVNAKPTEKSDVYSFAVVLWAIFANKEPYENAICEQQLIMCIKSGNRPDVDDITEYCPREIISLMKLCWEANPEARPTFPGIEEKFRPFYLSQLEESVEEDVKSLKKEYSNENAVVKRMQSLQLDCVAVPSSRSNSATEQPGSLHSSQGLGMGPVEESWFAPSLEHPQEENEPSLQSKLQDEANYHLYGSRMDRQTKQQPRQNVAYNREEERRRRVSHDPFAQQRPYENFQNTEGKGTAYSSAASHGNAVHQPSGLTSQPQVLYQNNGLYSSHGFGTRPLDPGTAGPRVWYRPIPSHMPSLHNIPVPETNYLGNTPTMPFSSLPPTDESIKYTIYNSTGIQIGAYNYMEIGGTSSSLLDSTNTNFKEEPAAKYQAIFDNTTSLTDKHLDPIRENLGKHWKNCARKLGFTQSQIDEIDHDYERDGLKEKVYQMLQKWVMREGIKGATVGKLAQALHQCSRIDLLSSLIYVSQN

HT-29 = assay: Cytotoxicity against human HT-29 cells assessed as cell viability at 10 uM incubated for 24 hrs by Cell Titer Glo assay; format: toxicity, cell-based; settings: ht-29, 24 h
[9] = target: T1, Receptor-interacting serine/threonine-protein kinase 2; assay: Inhibition of RIPK2-mediated NF-kappaB signalling in C14-TriLAN-Gly-treated human THP-1 cells preincubated for 30 mins followed by C14-TriLAN-Gly addition measured after 24 hrs by luminescence based assay; format: cell-based
[10] = target: T1, Receptor-interacting serine/threonine-protein kinase 2; assay: Inhibition of N-terminal polyHis-tagged human RIPK2 (8 to 310 residues) expressed in Sf9 cells using MBP as substrate preincubated for 15 mins followed by ATP addition measured after 90 mins by ADP-Glo assay
[11] = target: Vascular endothelial growth factor receptor 2 (Homo sapiens) (UniProt P35968); assay: Inhibition of human KDR relative to control; parameters: concentration or dose not given beside the values; settings: concentration not given here
[12] = target: T2, Receptor-interacting serine/threonine-protein kinase 3; assay: Inhibition of N-terminal polyHis-tagged human RIPK3 (1 to 307 residues) expressed in Sf9 cells using MBP as substrate upto 10 uM preincubated for 15 mins followed by ATP addition measured after 90 mins by ADP-Glo assay; settings: time 105.0 min
Target sequence in this assay (Q9Y572 whole entry, looked up, the tested form may be a part): as the sequence (Q9Y572 whole entry, the tested form may be a part) above

[13] = target: Epidermal growth factor receptor (Homo sapiens) (UniProt P00533); assay: Inhibition of human EGFR relative to control; settings: concentration not given here
[14] = target: MAP kinase-interacting serine/threonine-protein kinase 2 (Homo sapiens) (UniProt Q9HBH9); assay: Inhibition of human MNK2 relative to control; settings: concentration not given here
[15] = target: Serine/threonine-protein kinase 10 (Homo sapiens) (UniProt O94804); assay: Inhibition of human LOK relative to control; settings: concentration not given here
[16] = target: Tyrosine-protein kinase Fyn (Homo sapiens) (UniProt P06241); assay: Inhibition of human FYN relative to control; settings: concentration not given here
[17] = target: T1, Receptor-interacting serine/threonine-protein kinase 2; assay: Inhibition of RIPK2-mediated NF-kappaB signalling in C14-TriLAN-Gly-treated human THP-1 cells upto 10 uM preincubated for 30 mins followed by C14-TriLAN-Gly addition measured after 24 hrs by luminescence based assay; format: cell-based
[18] = target: T1, Receptor-interacting serine/threonine-protein kinase 2; assay: Inhibition of RIPK2-mediated NF-kappaB signalling in MDP-treated human THP-1 cells upto 10 uM preincubated for 30 mins followed by MDP addition measured after 24 hrs by luminescence based assay; format: cell-based
[19] = target: Tyrosine-protein kinase ABL1 (Homo sapiens) (UniProt P00519); assay: Inhibition of human ABL relative to control; settings: concentration not given here
[20] = target: Tyrosine-protein kinase Lyn (Homo sapiens) (UniProt P07948); assay: Inhibition of human LYN relative to control; settings: concentration not given here

Chain of Epidermal growth factor receptor (Homo sapiens) (P00533 whole entry): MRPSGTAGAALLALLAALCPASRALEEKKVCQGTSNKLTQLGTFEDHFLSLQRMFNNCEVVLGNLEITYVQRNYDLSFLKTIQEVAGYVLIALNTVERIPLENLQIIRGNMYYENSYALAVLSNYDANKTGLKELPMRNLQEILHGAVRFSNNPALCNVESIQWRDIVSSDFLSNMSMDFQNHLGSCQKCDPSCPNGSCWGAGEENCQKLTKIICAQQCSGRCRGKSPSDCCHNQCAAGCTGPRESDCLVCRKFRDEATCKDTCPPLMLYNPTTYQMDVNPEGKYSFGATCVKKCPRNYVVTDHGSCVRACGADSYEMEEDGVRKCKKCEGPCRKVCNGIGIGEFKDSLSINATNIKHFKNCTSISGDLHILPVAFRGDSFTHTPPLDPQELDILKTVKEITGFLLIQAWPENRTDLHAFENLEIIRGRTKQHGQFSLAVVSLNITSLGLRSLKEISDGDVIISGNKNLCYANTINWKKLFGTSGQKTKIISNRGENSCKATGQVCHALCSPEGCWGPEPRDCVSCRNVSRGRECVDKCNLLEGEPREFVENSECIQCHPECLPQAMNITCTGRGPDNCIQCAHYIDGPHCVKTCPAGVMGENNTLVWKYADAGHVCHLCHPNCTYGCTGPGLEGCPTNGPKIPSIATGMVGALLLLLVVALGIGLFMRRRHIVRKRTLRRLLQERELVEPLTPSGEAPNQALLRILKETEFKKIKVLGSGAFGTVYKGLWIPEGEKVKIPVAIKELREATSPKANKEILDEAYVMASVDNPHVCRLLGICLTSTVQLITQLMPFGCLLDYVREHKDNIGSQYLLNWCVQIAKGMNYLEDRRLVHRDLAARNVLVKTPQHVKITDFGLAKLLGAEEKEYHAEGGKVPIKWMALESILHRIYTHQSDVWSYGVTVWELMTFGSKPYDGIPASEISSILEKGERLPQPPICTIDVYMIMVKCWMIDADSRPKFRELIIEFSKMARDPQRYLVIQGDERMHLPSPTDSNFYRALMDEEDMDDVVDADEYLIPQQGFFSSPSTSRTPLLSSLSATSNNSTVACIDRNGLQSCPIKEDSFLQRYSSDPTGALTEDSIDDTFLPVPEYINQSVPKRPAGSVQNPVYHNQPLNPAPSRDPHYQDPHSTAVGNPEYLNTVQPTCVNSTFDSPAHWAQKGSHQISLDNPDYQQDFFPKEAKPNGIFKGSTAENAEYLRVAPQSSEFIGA
Chain of Vascular endothelial growth factor receptor 2 (Homo sapiens) (P35968 whole entry, the tested form may be a part): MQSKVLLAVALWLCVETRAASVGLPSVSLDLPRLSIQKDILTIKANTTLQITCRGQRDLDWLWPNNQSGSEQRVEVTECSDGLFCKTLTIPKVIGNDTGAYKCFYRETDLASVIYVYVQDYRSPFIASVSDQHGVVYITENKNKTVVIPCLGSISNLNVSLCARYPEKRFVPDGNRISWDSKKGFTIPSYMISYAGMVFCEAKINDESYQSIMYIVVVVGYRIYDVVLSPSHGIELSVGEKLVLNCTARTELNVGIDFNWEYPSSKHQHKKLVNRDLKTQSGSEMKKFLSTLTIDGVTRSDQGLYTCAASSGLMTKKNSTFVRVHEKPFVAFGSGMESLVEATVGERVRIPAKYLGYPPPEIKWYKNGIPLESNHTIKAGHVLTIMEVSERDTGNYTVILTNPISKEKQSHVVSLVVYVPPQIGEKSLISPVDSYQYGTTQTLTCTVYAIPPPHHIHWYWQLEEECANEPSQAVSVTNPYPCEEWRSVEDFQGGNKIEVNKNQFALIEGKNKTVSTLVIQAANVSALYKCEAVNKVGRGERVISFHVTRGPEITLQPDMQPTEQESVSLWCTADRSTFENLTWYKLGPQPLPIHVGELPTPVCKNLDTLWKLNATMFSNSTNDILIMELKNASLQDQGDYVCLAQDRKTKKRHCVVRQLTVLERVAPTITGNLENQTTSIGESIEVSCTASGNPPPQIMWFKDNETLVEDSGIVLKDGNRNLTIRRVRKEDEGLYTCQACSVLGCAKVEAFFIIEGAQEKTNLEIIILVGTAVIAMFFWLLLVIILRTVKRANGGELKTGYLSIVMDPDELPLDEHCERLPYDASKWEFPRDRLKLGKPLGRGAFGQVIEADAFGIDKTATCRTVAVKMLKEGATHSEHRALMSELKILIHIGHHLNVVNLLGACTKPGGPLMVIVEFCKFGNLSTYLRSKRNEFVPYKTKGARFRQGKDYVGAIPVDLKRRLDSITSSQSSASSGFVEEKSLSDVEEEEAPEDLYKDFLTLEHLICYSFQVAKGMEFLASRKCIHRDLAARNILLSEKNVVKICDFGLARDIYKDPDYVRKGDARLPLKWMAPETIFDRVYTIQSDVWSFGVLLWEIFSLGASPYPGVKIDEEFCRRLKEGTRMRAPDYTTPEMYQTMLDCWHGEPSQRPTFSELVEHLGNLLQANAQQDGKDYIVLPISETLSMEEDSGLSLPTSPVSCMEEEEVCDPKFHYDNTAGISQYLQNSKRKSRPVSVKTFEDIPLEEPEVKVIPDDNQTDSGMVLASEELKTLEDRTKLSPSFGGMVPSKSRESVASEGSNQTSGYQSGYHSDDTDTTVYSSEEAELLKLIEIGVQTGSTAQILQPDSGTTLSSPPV
T1 sequence (O43353 whole entry, the tested form may be a part): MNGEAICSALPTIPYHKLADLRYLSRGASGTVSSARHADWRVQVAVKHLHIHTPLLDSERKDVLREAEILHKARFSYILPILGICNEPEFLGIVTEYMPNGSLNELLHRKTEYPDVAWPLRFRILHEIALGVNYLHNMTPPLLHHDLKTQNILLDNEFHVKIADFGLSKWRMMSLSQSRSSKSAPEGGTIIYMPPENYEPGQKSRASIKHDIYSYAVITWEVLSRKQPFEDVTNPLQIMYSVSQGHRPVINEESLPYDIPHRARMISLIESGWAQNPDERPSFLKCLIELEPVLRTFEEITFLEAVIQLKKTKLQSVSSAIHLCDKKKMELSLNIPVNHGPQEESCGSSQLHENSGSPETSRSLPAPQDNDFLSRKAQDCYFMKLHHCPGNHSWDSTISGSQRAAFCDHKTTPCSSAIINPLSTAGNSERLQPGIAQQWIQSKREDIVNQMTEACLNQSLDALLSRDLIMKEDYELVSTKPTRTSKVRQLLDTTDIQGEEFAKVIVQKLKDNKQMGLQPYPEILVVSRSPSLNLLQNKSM
Chain of Tyrosine-protein kinase Fyn (Homo sapiens) (P06241 2-537 limits assumed): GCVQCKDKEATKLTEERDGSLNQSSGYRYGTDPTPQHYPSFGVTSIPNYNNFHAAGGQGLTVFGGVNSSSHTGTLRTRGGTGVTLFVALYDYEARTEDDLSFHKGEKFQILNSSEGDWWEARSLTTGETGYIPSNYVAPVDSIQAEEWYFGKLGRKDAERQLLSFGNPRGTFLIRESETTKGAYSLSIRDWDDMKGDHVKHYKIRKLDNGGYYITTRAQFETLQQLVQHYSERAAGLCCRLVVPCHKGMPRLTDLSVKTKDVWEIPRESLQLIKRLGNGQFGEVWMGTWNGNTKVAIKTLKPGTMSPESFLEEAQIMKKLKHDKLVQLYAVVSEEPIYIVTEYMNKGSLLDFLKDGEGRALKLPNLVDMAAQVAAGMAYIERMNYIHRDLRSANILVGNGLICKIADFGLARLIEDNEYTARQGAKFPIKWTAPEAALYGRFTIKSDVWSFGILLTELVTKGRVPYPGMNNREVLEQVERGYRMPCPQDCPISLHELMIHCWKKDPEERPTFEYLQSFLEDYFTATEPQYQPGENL
Chain of MAP kinase-interacting serine/threonine-protein kinase 2 (Homo sapiens) (Q9HBH9 whole entry, looked up): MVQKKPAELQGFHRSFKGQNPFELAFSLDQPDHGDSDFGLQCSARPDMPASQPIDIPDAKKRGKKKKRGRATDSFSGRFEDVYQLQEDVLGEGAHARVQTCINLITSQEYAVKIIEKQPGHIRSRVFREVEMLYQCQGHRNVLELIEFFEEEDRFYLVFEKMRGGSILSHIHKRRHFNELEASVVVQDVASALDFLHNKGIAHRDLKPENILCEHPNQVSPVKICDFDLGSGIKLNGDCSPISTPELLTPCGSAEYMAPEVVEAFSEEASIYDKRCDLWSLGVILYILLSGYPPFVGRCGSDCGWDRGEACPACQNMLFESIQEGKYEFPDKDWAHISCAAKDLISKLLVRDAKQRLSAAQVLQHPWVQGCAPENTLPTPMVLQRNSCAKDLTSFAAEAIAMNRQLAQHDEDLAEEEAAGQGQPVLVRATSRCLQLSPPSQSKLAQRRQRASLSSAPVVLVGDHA

Row | Compound | remaining at 2 h, 5 µM [1] | remaining at 2 h, 5 µM [2] | remaining at 0.75 h, 10 µM [3] | IC50 [4] | IC50 [5] | IC50 [6] | Stability [7] | IC50 [8] | IC50 [9] | IC50 [10] | inhibition [11] | inhibition [12] | remaining at 0.75 h, 10 µM [7] | Stability [2] | inhibition [13] | also measured
1 | CC(C)[N+](C)(CCOC(=O)C1c2ccccc2Oc2ccccc21)C(C)C [PROPANTHELINE] | 11% | 2% | – | – | – | – | – | – | – | – | – | – | – | – | – | –
2 | Cc1ccsc1-c1cc2c(Nc3ccc4scnc4c3)ncnc2cc1-c1cccc(CO)c1 | 108% | 113% | 118% | 229 nM | 122 nM | > 50000 nM | 123% | > 50000 nM | 225 nM | 4 nM | 85% | – | – | – | – | Activity (HT-29): Toxic
3 | Cn1cncc1-c1cc2c(Nc3ccc4scnc4c3)ncnc2cc1Cl | 102% | – | 105% | 54 nM | – | > 50000 nM | – | > 50000 nM | 146 nM | 7 nM | – | inactive | 94% | 122% | – | –
4 | Cn1cccc1-c1cc2c(Nc3ccc4scnc4c3)ncnc2cc1-c1cccc(CO)c1 | 119% | 112% | 93% | 95 nM | 141 nM | > 50000 nM | 124% | > 50000 nM | 119 nM | 5 nM | 74% | – | – | – | – | Activity (HT-29): Toxic
5 | c1csc(-c2ccc3ncnc(Nc4ccc5scnc5c4)c3c2)c1 | – | – | – | 120 nM | 398 nM | > 50000 nM | – | > 50000 nM | 106 nM | 4 nM | 69% | – | – | – | 54% | inhibition [14]: 54%; inhibition [15]: 50%; inhibition [16]: 71%
6 | C1=C(c2cc3ncnc(Nc4ccc5scnc5c4)c3cc2-c2cccs2)COC1 | 111% | 107% | 94% | 36 nM | 464 nM | > 50000 nM | – | > 50000 nM | 51 nM | 5 nM | – | – | 108% | – | – | –
7 | Cn1cncc1-c1ccc2ncnc(Nc3ccc4scnc4c3)c2c1 | 79% | – | 118% | 115 nM | – | > 50000 nM | – | > 50000 nM | 119 nM | 4 nM | 66% | inactive | 108% | 121% | 68% | –
8 | Cn1ccnc1-c1cc2c(Nc3ccc4scnc4c3)ncnc2cc1Cl | – | – | 115% | 58 nM | – | > 50000 nM | – | > 50000 nM | 183 nM | 3 nM | – | inactive | 105% | 141% | – | Stability ([1]; 2 h, 5 µM): 135%
9 | Clc1cc2ncnc(Nc3ccc4scnc4c3)c2cc1-c1cccs1 | – | – | – | – | – | > 50000 nM | – | > 50000 nM | – | 14 nM | – | inactive | – | – | – | IC50 [17]: Not Active; IC50 [18]: Not Active
10 | OCc1ccc(-c2cc3ncnc(Nc4ccc5scnc5c4)c3cc2-c2cccs2)o1 | 107% | 108% | 114% | 27 nM | 117 nM | > 50000 nM | 124% | > 50000 nM | 14 nM | 3 nM | 94% | – | – | – | 79% | inhibition [19]: 70%; inhibition [15]: 83%; inhibition [16]: 94%; inhibition [20]: 94%

Source: ChEMBL document CHEMBL5625233, “Exploring positions 6 and 7 of a quinazoline-based scaffold leads to changes in selectivity and potency towards RIPK2/3 kinases” (Eur J Med Chem, 2023)
